# Source: PubChem BioAssay (NCI)
#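 Five concentrations, 48 hours, 96-well plates. Definition used: TGI = concentration required for complete inhibition of growth.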
# How the values were obtained:
# Assay in all cases: DTP human tumour cell line panel, 48 h
# ACHN renal = test system: ACHN renal
# SK-MEL-28 melanoma = test system: SK-MEL-28 melanoma
# SF-539 CNS = test system: SF-539 CNS
# SR leukemia = test system: SR leukemia
# HCC-2998 colon = test system: HCC-2998 colon
# HT29 colon = test system: HT29 colon
# K-562 leukemia = test system: K-562 leukemia
# NCI-H522 lung = test system: NCI-H522 lung
# EKVX NSCLC = test system: EKVX NSCLC
# MDA-MB-435 = test system: MDA-MB-435
# MOLT-4 leukemia = test system: MOLT-4 leukemia
# LOX IMVI melanoma = test system: LOX IMVI melanoma
# MDA-MB-231 breast = test system: MDA-MB-231 breast
# HS 578T breast = test system: HS 578T breast
# MDA-N = test system: MDA-N
# SK-MEL-2 melanoma = test system: SK-MEL-2 melanoma
# HCT-116 colon = test system: HCT-116 colon
# HOP-62 NSCLC = test system: HOP-62 NSCLC
# CAKI-1 renal = test system: CAKI-1 renal
# UO-31 renal = test system: UO-31 renal
# HL-60(TB) leukemia = test system: HL-60(TB) leukemia
# A498 renal = test system: A498 renal
# SNB-19 CNS = test system: SNB-19 CNS
# U251 CNS = test system: U251 CNS
# PC-3 prostate = test system: PC-3 prostate
# MALME-3M melanoma = test system: MALME-3M melanoma
# TK-10 renal = test system: TK-10 renal
# MCF7 breast = test system: MCF7 breast
# RXF 393 renal = test system: RXF 393 renal
# UACC-62 melanoma = test system: UACC-62 melanoma
# UACC-257 melanoma = test system: UACC-257 melanoma
# SK-MEL-5 melanoma = test system: SK-MEL-5 melanoma
# DU-145 prostate = test system: DU-145 prostate
# SF-295 CNS = test system: SF-295 CNS
# 786-0 renal = test system: 786-0 renal
# CCRF-CEM leukemia = test system: CCRF-CEM leukemia
# SW-620 colon = test system: SW-620 colon
# SN12C renal = test system: SN12C renal
# BT-549 breast = test system: BT-549 breast
# NCI-H460 lung = test system: NCI-H460 lung
# M14 melanoma = test system: M14 melanoma
# SK-OV-3 ovarian = test system: SK-OV-3 ovarian
# NCI-H23 lung = test system: NCI-H23 lung
# OVCAR-4 ovarian = test system: OVCAR-4 ovarian
# NCI/ADR-RES ovarian = test system: NCI/ADR-RES ovarian
# NCI-H226 lung = test system: NCI-H226 lung
# COLO 205 colon = test system: COLO 205 colon
# OVCAR-8 ovarian = test system: OVCAR-8 ovarian
# A549 NSCLC = test system: A549 NSCLC
# KM12 colon = test system: KM12 colon
# RPMI-8226 leukemia = test system: RPMI-8226 leukemia
# T-47D breast = test system: T-47D breast
# OVCAR-5 ovarian = test system: OVCAR-5 ovarian
# HCT-15 colon = test system: HCT-15 colon
# HOP-92 NSCLC = test system: HOP-92 NSCLC
# OVCAR-3 ovarian = test system: OVCAR-3 ovarian
# IGROV1 ovarian = test system: IGROV1 ovarian
# SF-268 CNS = test system: SF-268 CNS
smiles,measurement,setting,value
COc1ccc(Nc2nc(N)c(C(=O)c3ccco3)s2)cc1,TGI,ACHN renal,> 100 µM
same,TGI,SK-MEL-28 melanoma,> 100 µM
same,TGI,SF-539 CNS,63.2 µM
same,TGI,SR leukemia,> 33.8 µM
same,TGI,HCC-2998 colon,71.9 µM
same,TGI,HT29 colon,> 100 µM
same,TGI,K-562 leukemia,> 100 µM
same,TGI,NCI-H522 lung,> 100 µM
same,TGI,EKVX NSCLC,> 100 µM
same,TGI,MDA-MB-435,16.9 µM
same,TGI,MOLT-4 leukemia,> 55.7 µM
same,TGI,LOX IMVI melanoma,> 100 µM
same,TGI,MDA-MB-231 breast,> 100 µM
same,TGI,HS 578T breast,> 100 µM
same,TGI,MDA-N,> 100 µM
same,TGI,SK-MEL-2 melanoma,> 83.9 µM
same,TGI,HCT-116 colon,> 66.4 µM
same,TGI,HOP-62 NSCLC,> 100 µM
same,TGI,CAKI-1 renal,> 100 µM
same,TGI,UO-31 renal,> 70.2 µM
same,TGI,HL-60(TB) leukemia,17.7 µM
same,TGI,A498 renal,> 61.1 µM
same,TGI,SNB-19 CNS,> 100 µM
same,TGI,U251 CNS,> 100 µM
same,TGI,PC-3 prostate,> 100 µM
same,TGI,MALME-3M melanoma,> 100 µM
same,TGI,TK-10 renal,> 57.5 µM
same,TGI,MCF7 breast,> 100 µM
same,TGI,RXF 393 renal,> 77.6 µM
same,TGI,UACC-62 melanoma,> 100 µM
same,TGI,UACC-257 melanoma,> 100 µM
same,TGI,SK-MEL-5 melanoma,99.7 µM
same,TGI,DU-145 prostate,> 100 µM
same,TGI,SF-295 CNS,> 100 µM
same,TGI,786-0 renal,> 80.1 µM
same,TGI,CCRF-CEM leukemia,> 56.1 µM
same,TGI,SW-620 colon,> 100 µM
same,TGI,SN12C renal,> 100 µM
same,TGI,BT-549 breast,> 100 µM
same,TGI,NCI-H460 lung,> 53.3 µM
same,TGI,M14 melanoma,> 100 µM
same,TGI,SK-OV-3 ovarian,> 100 µM
same,TGI,NCI-H23 lung,> 100 µM
same,TGI,OVCAR-4 ovarian,> 89.9 µM
same,TGI,NCI/ADR-RES ovarian,> 94.8 µM
same,TGI,NCI-H226 lung,> 72.2 µM
same,TGI,COLO 205 colon,> 100 µM
same,TGI,OVCAR-8 ovarian,> 100 µM
same,TGI,A549 NSCLC,> 100 µM
same,TGI,KM12 colon,> 100 µM
same,TGI,RPMI-8226 leukemia,> 85.4 µM
same,TGI,T-47D breast,> 100 µM
same,TGI,OVCAR-5 ovarian,> 100 µM
same,TGI,HCT-15 colon,> 100 µM
same,TGI,HOP-92 NSCLC,> 100 µM
same,TGI,OVCAR-3 ovarian,> 70.6 µM
same,TGI,IGROV1 ovarian,> 100 µM
same,TGI,SF-268 CNS,> 100 µM
